Data published in BindingDB's records for doi:10.1016/j.bmcl.2004.09.058 (Schering-Plough Research Institute, 2004).

biological target: Genome polyprotein (Hepatitis C virus genotype 1a (isolate H77), UniProt P27958); assay: Continuous Spectrophotometric Assay; conditions: pH 6.5; 30 °C
Procedure: Proteolytic cleavage of the ester linkage between the Nva (L-norvaline) and the chromophore (PAP) was monitored for change in absorbance at 370 nm. Initial velocities were determined using linear regression and kinetic constants were obtained by fitting the data to the Michaelis-Menten equation.

Sequence of Genome polyprotein (P27958 1027-1657 limits assumed): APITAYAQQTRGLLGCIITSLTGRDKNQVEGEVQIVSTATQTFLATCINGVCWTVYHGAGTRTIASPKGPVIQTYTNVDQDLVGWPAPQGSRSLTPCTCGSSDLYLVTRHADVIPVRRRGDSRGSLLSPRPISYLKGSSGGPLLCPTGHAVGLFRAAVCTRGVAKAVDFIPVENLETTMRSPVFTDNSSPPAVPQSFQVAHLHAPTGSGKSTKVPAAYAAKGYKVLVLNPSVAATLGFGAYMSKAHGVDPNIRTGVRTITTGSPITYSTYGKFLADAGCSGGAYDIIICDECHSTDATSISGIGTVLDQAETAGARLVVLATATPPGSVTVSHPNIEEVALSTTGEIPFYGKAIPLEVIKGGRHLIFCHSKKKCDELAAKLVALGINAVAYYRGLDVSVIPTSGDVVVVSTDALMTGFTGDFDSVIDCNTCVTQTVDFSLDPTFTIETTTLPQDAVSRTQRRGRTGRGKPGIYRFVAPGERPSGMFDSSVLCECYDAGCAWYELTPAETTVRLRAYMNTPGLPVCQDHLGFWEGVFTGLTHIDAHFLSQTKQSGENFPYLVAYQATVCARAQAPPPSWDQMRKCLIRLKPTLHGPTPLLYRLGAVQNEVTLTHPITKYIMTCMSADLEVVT

Row | SMILES | Ki [µM]
1 | C=CCNC(=O)C(=O)C(CCC)NC(=O)[C@@H]1CN(CC(=O)OCC)C(=O)N1C(=O)[C@@H](NC(=O)[C@@H](NC(=O)OCC(C)C)C(C)C)C(C)C (stereo partly drawn) [ethyl 2-[(4S)-3-[(2S)-3-methyl-2-[(2S)-3-methyl-2-{[(2-methylpropoxy)carbonyl]amino}butanamido]butanoyl]-2-oxo-4-{[1-oxo-1-(prop-2-en-1-ylcarbamoyl)pentan-2-yl]carbamoyl}imidazolidin-1-yl]acetate] | 78
2 | C=CCNC(=O)C(=O)C(CCC)NC(=O)[C@@H]1CNC(=O)N1C(=O)[C@@H](NC(=O)[C@@H](NC(=O)[C@H](CCC(=O)OC(C)(C)C)NC(=O)[C@H](CCC(=O)OC(C)(C)C)NC(C)=O)C(C)C)C(C)C (stereo partly drawn) [tert-butyl (4S)-4-{[(1S)-4-(tert-butoxy)-1-{[(1S)-2-methyl-1-{[(2S)-3-methyl-1-oxo-1-[(5S)-2-oxo-5-{[1-oxo-1-(prop-2-en-1-ylcarbamoyl)pentan-2-yl]carbamoyl}imidazolidin-1-yl]butan-2-yl]carbamoyl}propyl]carbamoyl}-4-oxobutyl]carbamoyl}-4-acetamidobutanoate] | 69
3 | C=CCNC(=O)C(=O)C(CCC)NC(=O)[C@@H]1CNC(=O)N1C(=O)[C@@H](NC(=O)[C@@H](NC(=O)[C@H](CCC(=O)O)NC(=O)[C@H](CCC(=O)O)NC(C)=O)C(C)C)C(C)C (stereo partly drawn) [(4S)-4-{[(1S)-3-carboxy-1-{[(1S)-2-methyl-1-{[(2S)-3-methyl-1-oxo-1-[(5S)-2-oxo-5-{[1-oxo-1-(prop-2-en-1-ylcarbamoyl)pentan-2-yl]carbamoyl}imidazolidin-1-yl]butan-2-yl]carbamoyl}propyl]carbamoyl}propyl]carbamoyl}-4-acetamidobutanoic acid] | 46
4 | C=CCOC(=O)CNC(=O)C(=O)C(CCC)NC(=O)[C@@H]1CN(Cc2ccccc2)C(=O)N1C(=O)[C@@H](NC(=O)[C@@H](NC(=O)[C@H](CCC(=O)OC(C)(C)C)NC(=O)[C@H](CCC(=O)OC(C)(C)C)NC(C)=O)C(C)C)C(C)C (stereo partly drawn) [tert-butyl (4S)-4-{[(1S)-1-{[(1S)-1-{[(2S)-1-[(5S)-3-benzyl-2-oxo-5-[(1-oxo-1-{[2-oxo-2-(prop-2-en-1-yloxy)ethyl]carbamoyl}pentan-2-yl)carbamoyl]imidazolidin-1-yl]-3-methyl-1-oxobutan-2-yl]carbamoyl}-2-methylpropyl]carbamoyl}-4-(tert-butoxy)-4-oxobutyl]carbamoyl}-4-acetamidobutanoate] | > 100
5 | C=CCOC(=O)CNC(=O)C(=O)C(CCC)NC(=O)[C@@H]1CN(Cc2ccc(Cl)c(Cl)c2)C(=O)N1C(=O)[C@@H](NC(=O)[C@@H](NC(=O)[C@H](CCC(=O)O)NC(=O)[C@H](CCC(=O)O)NC(C)=O)C(C)C)C(C)C (stereo partly drawn) [(4S)-4-{[(1S)-3-carboxy-1-{[(1S)-1-{[(2S)-1-[(5S)-3-[(3,4-dichlorophenyl)methyl]-2-oxo-5-[(1-oxo-1-{[2-oxo-2-(prop-2-en-1-yloxy)ethyl]carbamoyl}pentan-2-yl)carbamoyl]imidazolidin-1-yl]-3-methyl-1-oxobutan-2-yl]carbamoyl}-2-methylpropyl]carbamoyl}propyl]carbamoyl}-4-acetamidobutanoic acid] | 0.31
6 | C=CCNC(=O)C(=O)C(CCC)NC(=O)[C@@H]1CN(Cc2ccccc2)C(=O)N1C(=O)[C@@H](NC(=O)[C@@H](NC(=O)[C@H](CCC(=O)O)NC(=O)[C@H](CCC(=O)O)NC(C)=O)C(C)C)C(C)C (stereo partly drawn) [(4S)-4-{[(1S)-1-{[(1S)-1-{[(2S)-1-[(5S)-3-benzyl-2-oxo-5-{[1-oxo-1-(prop-2-en-1-ylcarbamoyl)pentan-2-yl]carbamoyl}imidazolidin-1-yl]-3-methyl-1-oxobutan-2-yl]carbamoyl}-2-methylpropyl]carbamoyl}-3-carboxypropyl]carbamoyl}-4-acetamidobutanoic acid] | 1
7 | C=CCOC(=O)CNC(=O)C(=O)C(CCC)NC(=O)[C@@H]1CN(Cc2ccc(Cl)c(Cl)c2)C(=O)N1C(=O)[C@@H](NC(=O)[C@@H](NC(=O)[C@H](CCC(=O)OC(C)(C)C)NC(=O)[C@H](CCC(=O)OC(C)(C)C)NC(C)=O)C(C)C)C(C)C (stereo partly drawn) [tert-butyl (4S)-4-{[(1S)-4-(tert-butoxy)-1-{[(1S)-1-{[(2S)-1-[(5S)-3-[(3,4-dichlorophenyl)methyl]-2-oxo-5-[(1-oxo-1-{[2-oxo-2-(prop-2-en-1-yloxy)ethyl]carbamoyl}pentan-2-yl)carbamoyl]imidazolidin-1-yl]-3-methyl-1-oxobutan-2-yl]carbamoyl}-2-methylpropyl]carbamoyl}-4-oxobutyl]carbamoyl}-4-acetamidobutanoate] | > 100
8 | C=CCNC(=O)C(=O)C(CCC)NC(=O)[C@@H]1CN(CC(=O)OCC)C(=O)N1C(=O)[C@@H](NC(=O)[C@@H](NC(=O)[C@H](CCC(=O)OC(C)(C)C)NC(=O)[C@H](CCC(=O)OC(C)(C)C)NC(C)=O)C(C)C)C(C)C (stereo partly drawn) [tert-butyl (4S)-4-{[(1S)-4-(tert-butoxy)-1-{[(1S)-1-{[(2S)-1-[(5S)-3-(2-ethoxy-2-oxoethyl)-2-oxo-5-{[1-oxo-1-(prop-2-en-1-ylcarbamoyl)pentan-2-yl]carbamoyl}imidazolidin-1-yl]-3-methyl-1-oxobutan-2-yl]carbamoyl}-2-methylpropyl]carbamoyl}-4-oxobutyl]carbamoyl}-4-acetamidobutanoate] | 30
9 | C=CCOC(=O)CNC(=O)C(=O)C(CCC)NC(=O)[C@@H]1CN(Cc2ccccc2)C(=O)N1C(=O)[C@@H](NC(=O)[C@@H](NC(=O)[C@H](CCC(=O)O)NC(=O)[C@H](CCC(=O)O)NC(C)=O)C(C)C)C(C)C (stereo partly drawn) [(4S)-4-{[(1S)-1-{[(1S)-1-{[(2S)-1-[(5S)-3-benzyl-2-oxo-5-[(1-oxo-1-{[2-oxo-2-(prop-2-en-1-yloxy)ethyl]carbamoyl}pentan-2-yl)carbamoyl]imidazolidin-1-yl]-3-methyl-1-oxobutan-2-yl]carbamoyl}-2-methylpropyl]carbamoyl}-3-carboxypropyl]carbamoyl}-4-acetamidobutanoic acid] | 1
10 | C=CCNC(=O)C(=O)C(CCC)NC(=O)[C@@H]1CN(Cc2ccccc2)C(=O)N1C(=O)[C@@H](NC(=O)[C@@H](NC(=O)[C@H](CCC(=O)OC(C)(C)C)NC(=O)[C@H](CCC(=O)OC(C)(C)C)NC(C)=O)C(C)C)C(C)C (stereo partly drawn) [tert-butyl (4S)-4-{[(1S)-1-{[(1S)-1-{[(2S)-1-[(5S)-3-benzyl-2-oxo-5-{[1-oxo-1-(prop-2-en-1-ylcarbamoyl)pentan-2-yl]carbamoyl}imidazolidin-1-yl]-3-methyl-1-oxobutan-2-yl]carbamoyl}-2-methylpropyl]carbamoyl}-4-(tert-butoxy)-4-oxobutyl]carbamoyl}-4-acetamidobutanoate] | 61
11 | C=CCNC(=O)C(=O)C(CCC)NC(=O)[C@@H]1CN(CC(=O)OCC)C(=O)N1C(=O)[C@@H](NC(=O)[C@@H](NC(=O)[C@H](CCC(=O)O)NC(=O)[C@H](CCC(=O)O)NC(C)=O)C(C)C)C(C)C (stereo partly drawn) [(4S)-4-{[(1S)-3-carboxy-1-{[(1S)-1-{[(2S)-1-[(5S)-3-(2-ethoxy-2-oxoethyl)-2-oxo-5-{[1-oxo-1-(prop-2-en-1-ylcarbamoyl)pentan-2-yl]carbamoyl}imidazolidin-1-yl]-3-methyl-1-oxobutan-2-yl]carbamoyl}-2-methylpropyl]carbamoyl}propyl]carbamoyl}-4-acetamidobutanoic acid] | 4
